Measured values from patent US6426355B1, “Heterocyclic carboxamide-containing thiourea inhibitors of herpes viruses containing phenylenediamine group” (American Home Products, priority 1998, dated 2002).
Converted amounts (≈) assume the structure as drawn.

What was measured:
[1] = tested on: HCMV recombinant mutant virus (RV145); test: HCMV microtiter plate assay (beta-glucuronidase reporter); type: cell-based, Human Cytomegalovirus; conditions: for IC50: Human betaherpesvirus 5, Fibroblast, read-out: IC50 (ug/ml) HCMV; for IC50 (ug/ml) HCMV: HCMV in human foreskin fibroblasts
Text: Ninety-six well plate cultures of human foreskin fibroblasts are infected in the presence of inhibitor compound with a HCMV recombinant mutant virus whose genome contains the prokaryotic beta-glucuronidase gene (Jefferson, R. A., S. M. Burgess, and D. Hirsh. 1986. Beta-glucuronidase from Escherichia coli as a gene fusion marker. Proc. Natl. Acad. Sci. USA 83:8447-8451) whose expression is controlled by a viral promoter. An example of such a virus is RV145 (Jones, T. R., V. P. Muzithras, and Y. Gluzman. 1991. Replacement mutagenesis of the human cytomegalovirus genome: US10 and US11 gene products are nonessential. J. Virol. 65:5860-5872). Since it is under the control of a viral promoter, beta-glucuronidase expression is an indirect indicator of growth and replication of HCMV in this assay. At 96 hours post-infection, the infected cell lysates are prepared (using 50 mM sodium phosphate [pH7.0] containing 0.1% Triton X-100 and 0.1% sarkosyl) and assayed for beta-glucuronidase activity using a substrate for the enzyme which when cleaved yields either a product which can be measured colorimetrically in a spectrophotometer or fluorescently in a microfluorimeter. Examples of such substrates are p-nitrophenyl-beta-D-glucuronide and methylumbelliferylglucuronide, respectively. The presence of an antiviral compound is indicated by the reduced expression of the HCMV genome resident beta-glucuronidase gene, compared to the absence of inhibitor. […] Data from this assay generated using varying amounts of inhibitor compound is also used to estimate the IC50 of an inhibitor compound.

HSV-1 = test: HSV Antiviral (ELISA) assay; type: cell-based; conditions: for IC50 (ug/ml) HSV: HSV-1 in Vero cells
Experimental: Vero cells (ATCC #CCL-81) are plated on 96-well tissue culture plates at 3.5×10^4 cells per 100 μl tissue culture DMEM (Dulbecco's modified Eagle media) supplemented with 2% fetal bovine serum (FBS) in each well. After overnight incubation @ 37° C. (in 5% CO2) and 30 minutes prior to infection with HSV-1 (multiplicity of infection equal to 0.006), cells are either untreated, or treated with test compound (multiple concentrations) or reference standard drug control. After approximately 24 hours post-infection incubation @ 37° C. (in 5% CO2), cells are fixed for ELISA assay. The primary antibody is murine anti-HSV glycoprotein D monoclonal primary antibody and the secondary antibody is goat anti-mouse IgG linked to β-galactosidase. Thus the extent of viral replication is determined by assessing β-galactosidase activity by quantifying the generation of the 4-methyl umbelliferone fluorescent cleavage product after addition of the methyl umbelliferyl-β-D-galactoside (Sigma #M1633) substrate on a microfluorimeter (365 nm for excitation and 450 nm for emission). Antiviral activity (IC50) of the test compound is determined by comparing the flourescence obtained in absence of compound to that obtained in the presence of compound.

VZV strain Ellen = test: VZV Antiviral (ELISA) assay; type: cell-based; conditions: for IC50 (ug/ml) VZV: VZV strain Ellen in HFF cells; for inhibition at 10 µg/mL: Human alphaherpesvirus 3, read-out: % inhibition 10 ug/ml VZV, at 10 ug/ml, VZV strain Ellen in HFF cells
Experimental: For the generation of stock VZV to be used in the assay, VZV strain Ellen (ATCC #VR-1367) is used to infect human foreskin fibroblast (HFF) cells at low multiplicity (less than 0.1) and incubated overnight at 37° C. in 5% CO2. After the overnight incubation, the mixture of uninfected and VZV-infected HFF infected cells are then harvested and added to each well of 96-well plates (3.5×10^4 cells in 100 μl DMEM supplemented with 2% FBS) which contain test compound or the reference standard drug control (in 100 μl DMEM supplemented with 2% FBS per well). These cells are incubated for three days at 37° C. in 5% CO2, then fixed for ELISA assay. The primary antibody is murine anti-VZV glycoprotein II monoclonal antibody (Applied Biosystems, Inc. #13-145-100) and the secondary antibody is goat anti-mouse IgG linked to β-galactosidase. Thus the extent of viral replication is determined by assessing β-galactosidase activity by quantifying the generation of the 4-methyl umbelliferone fluorescent cleavage product after addition of the methyl umbelliferyl-β-D-galactoside (Sigma #M1633) substrate on a microfluorimeter (365 nm for excitation and 450 nm for emission). Antiviral activity (IC50) of the test compound is determined by comparing the flourescence obtained in absence of compound to that obtained in the presence of compound.

O=C(NCc1ccc(Cl)c(Cl)c1)Nc1ccc(NC(=O)c2csnn2)cc1 [Example 90, [1,2,3]Thiadiazole-4-carboxylic acid {4-[3-(3,4-dichloro-benzyl)-ureido]-phenyl}-amide]
IC50 [1]: 0.07 µg/mL (≈ 166 nM)
IC50 (HSV-1; Human alphaherpesvirus 1, HSV-1 in Vero cells, read-out: IC50 (ug/ml) HSV): > 10 µg/mL

COc1cc(OC)c(NC(=S)Nc2ccc(NC(=O)c3cnccn3)cc2)cc1Cl [Example 144]
IC50 (ug/ml) HCMV [1]: 10 µg/mL (≈ 22500 nM)
IC50 (ug/ml) HSV (HSV-1): 7 µg/mL (≈ 15800 nM)

O=C(Nc1ccc(NC(=S)NCc2ccc3c(c2)OCO3)cc1)c1ccco1 [Example 546]
IC50 (ug/ml) VZV (VZV strain Ellen): 7 µg/mL (≈ 17700 nM)
IC50 (ug/ml) HSV (HSV-1): 1.7 µg/mL (≈ 4300 nM)

O=C(Nc1ccc(NC(=S)NCCCCc2ccccc2)cc1)c1csnn1 [Example 648]
IC50 (ug/ml) HCMV [1]: 0.01 µg/mL (≈ 24.3 nM)
IC50 (ug/ml) HSV (HSV-1): >10 µg/mL

O=C(Nc1ccc(NC(=S)NC(CO)c2ccccc2)cc1)c1csnn1 (stereo not drawn) [Example 726]
IC50 (ug/ml) HSV (HSV-1): >10 µg/mL

CC(C)(NC(=S)Nc1ccc(NC(=O)c2csnn2)cc1)c1ccccc1 [Example 728]
IC50 (ug/ml) HSV (HSV-1): 9 µg/mL (≈ 22600 nM)

CC(NC(=S)Nc1ccc(NC(=O)c2cscn2)cc1)c1ccc(F)c(C(F)(F)F)c1 (stereo not drawn) [Example 838]
IC50 (ug/ml) VZV (VZV strain Ellen): >7.5 µg/mL
IC50 (ug/ml) HCMV [1]: 0.0007 µg/mL (≈ 1.49 nM)

CC(NC(=S)Nc1ccc(NC(=O)c2cscn2)cc1)c1ccc(F)cc1Cl (stereo not drawn) [Example 839]
IC50 (ug/ml) VZV (VZV strain Ellen): >7.5 µg/mL
IC50 (ug/ml) HCMV [1]: 0.004 µg/mL (≈ 9.2 nM)

CC(NC(=S)Nc1ccc(NC(=O)c2cscn2)cc1)c1ccc(F)c(F)c1 (stereo not drawn) [Example 840]
IC50 (ug/ml) VZV (VZV strain Ellen): 0.14 µg/mL (≈ 335 nM)
IC50 (ug/ml) HCMV [1]: 0.0015 µg/mL (≈ 3.58 nM)

CC(NC(=S)Nc1ccc(NC(=O)c2cscn2)cc1)c1ccc(Br)cc1F (stereo not drawn) [Example 841]
IC50 (ug/ml) VZV (VZV strain Ellen): 0.77 µg/mL (≈ 1610 nM)
IC50 (ug/ml) HCMV [1]: 0.0011 µg/mL (≈ 2.29 nM)

CC(NC(=S)Nc1ccc(NC(=O)c2cscn2)cc1)c1cccc(F)c1 (stereo not drawn) [Example 842]
IC50 (ug/ml) VZV (VZV strain Ellen): 1.55 µg/mL (≈ 3870 nM)
IC50 (ug/ml) HCMV [1]: 0.02 µg/mL (≈ 49.9 nM)

CC(NC(=S)Nc1ccc(NC(=O)c2cscn2)cc1)c1ccccc1Br (stereo not drawn) [Example 843]
IC50 (ug/ml) VZV (VZV strain Ellen): >7.5 µg/mL
IC50 (ug/ml) HCMV [1]: 0.0031 µg/mL (≈ 6.72 nM)

CC(NC(=S)Nc1ccc(NC(=O)c2cscn2)cc1)c1cccc(Br)c1 (stereo not drawn) [Example 844]
IC50 (ug/ml) VZV (VZV strain Ellen): 1.03 µg/mL (≈ 2230 nM)
IC50 (ug/ml) HCMV [1]: 0.0008 µg/mL (≈ 1.73 nM)

CC(NC(=S)Nc1ccc(NC(=O)c2cscn2)cc1)c1ccccc1C(F)(F)F (stereo not drawn) [Example 845]
IC50 (ug/ml) VZV (VZV strain Ellen): >7.5 µg/mL
IC50 (ug/ml) HCMV [1]: 0.0060 µg/mL (≈ 13.3 nM)

CC(NC(=S)Nc1ccc(NC(=O)c2cscn2)cc1)c1ccc(F)cc1F (stereo not drawn) [Example 846]
IC50 (ug/ml) VZV (VZV strain Ellen): 1.04 µg/mL (≈ 2490 nM)
IC50 (ug/ml) HCMV [1]: 0.0130 µg/mL (≈ 31.1 nM)

C[C@@H](NC(=S)Nc1ccc(NC(=O)c2cscn2)cc1)c1cc(C(F)(F)F)cc(C(F)(F)F)c1 [Example 847]
IC50 (ug/ml) VZV (VZV strain Ellen): >7.5 µg/mL
IC50 (ug/ml) HCMV [1]: 0.0008 µg/mL (≈ 1.54 nM)

CC(NC(=S)Nc1ccc(NC(=O)c2cscn2)cc1)c1ccc(Cl)c(Cl)c1 (stereo not drawn) [Example 848]
IC50 (ug/ml) VZV (VZV strain Ellen): 0.19 µg/mL (≈ 421 nM)
IC50 (ug/ml) HCMV [1]: 0.002 µg/mL (≈ 4.43 nM)

CC(NC(=S)Nc1ccc(NC(=O)c2cscn2)cc1)c1ccc(C(F)(F)F)c(F)c1 (stereo not drawn) [Example 849]
IC50 (ug/ml) VZV (VZV strain Ellen): 1.82 µg/mL (≈ 3880 nM)
IC50 (ug/ml) HCMV [1]: 0.002 µg/mL (≈ 4.27 nM)

CC(NC(=S)Nc1ccc(NC(=O)c2cscn2)cc1)c1ccc(Cl)c(C(F)(F)F)c1 (stereo not drawn) [Example 850]
IC50 (ug/ml) VZV (VZV strain Ellen): 2.33 µg/mL (≈ 4800 nM)
IC50 (ug/ml) HCMV [1]: 0.0008 µg/mL (≈ 1.65 nM)

CC(NC(=S)Nc1ccc(NC(=O)c2cscn2)cc1)c1ccc(Cl)cc1F (stereo not drawn) [Example 851]
IC50 (ug/ml) VZV (VZV strain Ellen): 1.43 µg/mL (≈ 3290 nM)
IC50 (ug/ml) HCMV [1]: 0.017 µg/mL (≈ 39.1 nM)

CC(NC(=S)Nc1ccc(NC(=O)c2cscn2)cc1)c1ccc(F)cc1C(F)(F)F (stereo not drawn) [Example 852]
IC50 (ug/ml) VZV (VZV strain Ellen): >7.5 µg/mL
IC50 (ug/ml) HCMV [1]: 0.005 µg/mL (≈ 10.7 nM)

CC(NC(=S)Nc1ccc(NC(=O)c2cscn2)cc1)c1ccc(Cl)c(F)c1 (stereo not drawn) [Example 853]
IC50 (ug/ml) VZV (VZV strain Ellen): 0.62 µg/mL (≈ 1430 nM)
IC50 (ug/ml) HCMV [1]: 0.004 µg/mL (≈ 9.2 nM)

CCC(NC(=S)Nc1ccc(NC(=O)c2csnn2)cc1)c1cc(C(F)(F)F)cc(C(F)(F)F)c1 (stereo not drawn) [Example 857]
IC50 (ug/ml) VZV (VZV strain Ellen): >7.5 µg/mL
IC50 (ug/ml) HCMV [1]: 0.0006 µg/mL (≈ 1.12 nM)

CCCC(NC(=S)Nc1ccc(NC(=O)c2csnn2)cc1)c1cc(C(F)(F)F)cc(C(F)(F)F)c1 (stereo not drawn) [Example 858]
IC50 (ug/ml) VZV (VZV strain Ellen): >7.5 µg/mL
IC50 (ug/ml) HCMV [1]: 0.0007 µg/mL (≈ 1.28 nM)

CCCCC(NC(=S)Nc1ccc(NC(=O)c2csnn2)cc1)c1cc(C(F)(F)F)cc(C(F)(F)F)c1 (stereo not drawn) [Example 859]
IC50 (ug/ml) VZV (VZV strain Ellen): 0.5 µg/mL (≈ 890 nM)
IC50 (ug/ml) HCMV [1]: 0.00001 µg/mL (≈ 0.0178 nM)

O=C(Nc1ccc(NC(=S)NC(c2ccccc2)c2cc(C(F)(F)F)cc(C(F)(F)F)c2)cc1)c1csnn1 (stereo not drawn) [Example 860]
IC50 (ug/ml) VZV (VZV strain Ellen): >7.5 µg/mL
IC50 (ug/ml) HCMV [1]: 0.001 µg/mL (≈ 1.72 nM)

CC(C)(NC(=S)Nc1ccc(NC(=O)c2csnn2)cc1)c1cc(C(F)(F)F)cc(C(F)(F)F)c1 [Example 861]
IC50 (ug/ml) VZV (VZV strain Ellen): >7.5 µg/mL
IC50 (ug/ml) HCMV [1]: 0.002 µg/mL (≈ 3.75 nM)

O=C(Nc1ccc(NC(=S)NCc2cc(C(F)(F)F)cc(C(F)(F)F)c2)cc1)c1c[nH]cn1 [Example 862]
IC50 (ug/ml) VZV (VZV strain Ellen): >7.5 µg/mL
IC50 (ug/ml) HCMV [1]: 0.1 µg/mL (≈ 205 nM)

CC(NC(=S)Nc1ccc(NC(=O)c2c[nH]cn2)cc1)c1ccc(F)cc1 (stereo not drawn) [Example 863]
IC50 (ug/ml) VZV (VZV strain Ellen): >7.5 µg/mL
IC50 (ug/ml) HCMV [1]: 2.0 µg/mL (≈ 5220 nM)

Cn1cnc(C(=O)Nc2ccc(NC(=S)NCc3cc(C(F)(F)F)cc(C(F)(F)F)c3)cc2)c1 [Example 864]
IC50 (ug/ml) VZV (VZV strain Ellen): >7.5 µg/mL
IC50 (ug/ml) HCMV [1]: 0.5 µg/mL (≈ 997 nM)

CCC(NC(=S)Nc1ccc(NC(=O)c2cscn2)cc1)c1cc(C(F)(F)F)cc(C(F)(F)F)c1 (stereo not drawn) [Example 865]
IC50 (ug/ml) VZV (VZV strain Ellen): >7.5 µg/mL
IC50 (ug/ml) HCMV [1]: 0.0001 µg/mL (≈ 0.188 nM)

CC(=O)Nc1ccc(NC(=S)Nc2ccc(C(C)O)c(Cl)c2)cc1 (stereo not drawn) [Example 913, N-(4-{3-[3-Chloro-4-(1-hydroxy-ethyl)-phenyl]-thioureido}-phenyl)-acetamide]
inhibition at 10 µg/mL (VZV strain Ellen): 15%
IC50 [1]: 0.056 µg/mL (≈ 154 nM)

CC(=O)Nc1ccc(NC(=S)Nc2ccc(-c3ccno3)c(Cl)c2)cc1 [Example 974, N-{4-[3-(3-Chloro-4-isoxazol-5-yl-phenyl)-thioureido]-phenyl} -acetamide]
inhibition at 10 µg/mL (VZV strain Ellen): 14%
IC50 [1]: 0.011 µg/mL (≈ 28.4 nM)

CC(=O)Nc1ccc(NC(=S)Nc2cc(Cl)cc(Cl)c2)cc1 [Example 983, N-{4-[3-(3,5-Dichloro-phenyl)-thioureido]-phenyl}-acetamide]
inhibition at 10 µg/mL (VZV strain Ellen): 52%
IC50 [1]: 0.12 µg/mL (≈ 339 nM)
